Measured values reported in patent US20180255777A1, “Metal Ion Complex-Modified Layered Silicates” (priority 2017, published 2018).

Tested on: E. coli
Experiment: Disk diffusion method, zone of inhibition
Assay type: cell-based, Escherichia coli
Experimental: Working solutions were prepared by dissolving of N-alkylimidazoles (100 mg) in ethanol (50 μL). Blank disks were impregnated with 10 μL of solution and the disks placed on nutrient agar containing a confluent E. coli culture. The plates were incubated at 37° C. for 18-24 h and antimicrobial activity determined by measuring the zone of inhibition. The experiments were performed in triplicate.
The antibacterial activity of N-alkylimidazoles was investigated by the disk diffusion and broth methods against E. coli as a model microorganism.

silver(I)-N-octylimidazole complex [Ag(octlm)2]
antibacterial activity (in words) (disk diffusion against E. coli, comparison across alkyl chain lengths): superior activity | Zone of inhibition diameter (disk diffusion, nutrient agar with confluent E. coli culture, 37° C., 18-24 h, triplicate): 21 ± 1.4 mm
